Laboratory results as given in the supplement of paper PMC10307832.

Experiments:
Experiment in all cases: relative viability (nuclei count vs DMSO), 5 days (fraction); higher = more cells survive
Lapatinib + Linsitinib = compound: CS(=O)(=O)CCNCc1ccc(-c2ccc3ncnc(Nc4ccc(OCc5cccc(F)c5)c(Cl)c4)c3c2)o1 [Lapatinib] + C[C@]1(O)C[C@@H](c2nc(-c3ccc4ccc(-c5ccccc5)nc4c3)c3c(N)nccn32)C1 [Linsitinib] (partner 1 µM)
In short: (§1)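 Lung cancer cell lines in 1536-well plates got either a single drug or a fixed anchor-drug dose together with five library-drug doses (not always all listed) in √10 steps, by pin tool, on the day after seeding. Nuclei were counted after 5 days, and relative viability is the treated-to-vehicle ratio of nuclei counts. Values are medians of duplicate plates.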

Wnt-C59 + Phenformin = compound: CC1=NC=CC(=C1)C2=CC=C(C=C2)CC(=O)NC3=CC=C(C=C3)C4=CN=CC=C4 [Wnt-C59] + N=C(N)NC(=N)NCCc1ccccc1 [Phenformin] (partner 250 µM)
In short: as §1

Lapatinib + Palbociclib = compound: CS(=O)(=O)CCNCc1ccc(-c2ccc3ncnc(Nc4ccc(OCc5cccc(F)c5)c(Cl)c4)c3c2)o1 [Lapatinib] + CC(=O)c1c(C)c2cnc(Nc3ccc(N4CCNCC4)cn3)nc2n(C2CCCC2)c1=O [Palbociclib] (partner 0.5 µM)
In short: as §1

Lapatinib + OSI-027 = compound: CS(=O)(=O)CCNCc1ccc(-c2ccc3ncnc(Nc4ccc(OCc5cccc(F)c5)c(Cl)c4)c3c2)o1 [Lapatinib] + COc1cccc2cc(-c3nc([C@H]4CC[C@H](C(=O)O)CC4)n4ncnc(N)c34)[nH]c12 [OSI-027] (partner 0.5 µM)
In short: as §1

Row | Cell Line | relative viability (Lapatinib + Linsitinib; first compound 0.02 µM) | relative viability (Lapatinib + Linsitinib; first compound 0.06325 µM) | relative viability (Lapatinib + Linsitinib; first compound 0.2 µM) | relative viability (Lapatinib + Linsitinib; first compound 0.6325 µM) | relative viability (Lapatinib + Linsitinib; first compound 2 µM) | relative viability (Wnt-C59 + Phenformin; first compound 0.001 µM) | relative viability (Wnt-C59 + Phenformin; first compound 0.01 µM) | relative viability (Wnt-C59 + Phenformin; first compound 0.03162 µM) | relative viability (Wnt-C59 + Phenformin; first compound 0.1 µM) | relative viability (Lapatinib + Palbociclib; first compound 0.02 µM) | relative viability (Lapatinib + Palbociclib; first compound 0.06325 µM) | relative viability (Lapatinib + Palbociclib; first compound 0.2 µM) | relative viability (Lapatinib + Palbociclib; first compound 0.6325 µM) | relative viability (Lapatinib + Palbociclib; first compound 2 µM) | relative viability (Lapatinib + OSI-027; first compound 0.06325 µM) | relative viability (Lapatinib + OSI-027; first compound 0.2 µM) | relative viability (Lapatinib + OSI-027; first compound 0.6325 µM) | relative viability (Lapatinib + OSI-027; first compound 2 µM) | relative viability (Lapatinib + OSI-027; first compound 0.02 µM)
1 | HARA | 0.782 | 0.686 | 0.808 | 0.755 | 0.243 | 0.458 | 0.49 | 0.528 | 0.447 | 0.194 | 0.195 | 0.202 | 0.233 | 0.224 | 0.214 | 0.474 | 0.328 | 0.239 | –
2 | EBC-1 | 0.904 | 0.883 | 0.888 | 0.938 | 0.886 | – | – | – | – | – | – | – | – | – | – | – | – | – | –
3 | PC-3 [JPC-3] | – | 1.01 | 0.993 | 0.994 | 0.873 | 0.486 | 0.467 | 0.52 | 0.502 | – | 0.589 | – | 0.546 | 0.444 | 0.624 | 0.725 | 0.756 | 0.565 | 0.73
4 | SK-MES-1 | 1.12 | 1.01 | 0.97 | 0.69 | 0.663 | 0.673 | 0.69 | 0.694 | 0.695 | 0.338 | 0.384 | 0.326 | 0.328 | 0.299 | 0.453 | 0.6 | 0.578 | 0.256 | 0.472
5 | Calu-6 | 0.891 | 0.953 | 0.947 | 0.954 | 0.848 | – | – | – | – | – | – | – | – | – | – | – | – | – | –
6 | NCI-H838 | 1.08 | 0.913 | 1.03 | 1.04 | 0.874 | 0.573 | 0.582 | 0.588 | 0.624 | 0.225 | 0.193 | 0.201 | 0.238 | 0.178 | 0.256 | 0.369 | 0.383 | 0.332 | 0.401
7 | NCI-H2009 | 1.22 | 1.22 | 1.22 | 1.18 | 1.09 | 0.535 | 0.514 | 0.495 | 0.469 | 0.192 | 0.213 | 0.177 | 0.253 | 0.233 | 0.557 | 0.681 | 0.764 | 0.66 | 0.64
8 | NCI-H647 | 1.21 | 1.17 | 1.37 | 1.1 | 0.995 | 0.479 | 0.453 | 0.578 | 0.481 | 0.393 | 0.393 | 0.434 | 0.292 | 0.307 | 0.488 | 0.527 | 0.689 | 0.642 | 0.635
9 | NCI-H1993 | 0.743 | – | 0.816 | 0.752 | 0.639 | 0.49 | – | 0.472 | 0.514 | 0.687 | – | 0.471 | 0.588 | 0.433 | – | 0.593 | 0.586 | 0.652 | 0.557
10 | LCLC-97TM1 | – | – | 0.186 | 0.198 | 0.187 | 0.397 | 0.425 | 0.475 | 0.429 | – | 0.135 | 0.248 | 0.19 | 0.233 | – | 0.564 | 0.497 | 0.503 | –
